Test results from patent US6716849B1, “Substituted phenylcyclohexane carboxylic acid amides that have an adenosine uptake inhibiting effect” (Bayer Aktiengesellschaft, priority 2001, dated 2004).
Converted amounts (≈) assume the structure as drawn.

Key:
[1] = test system: transient occlusion of the middle cerebral artery (tMCA-O); test: tMCA-O: transient occlusion of the middle cerebral artery, infarct volume; type: in vivo; conditions: rat tMCA-O, 0.001 mg/(kg×h) i.v. infusion, begun at start of reperfusion, evaluated after 2 days
Protocol: The neuroprotective activity of the compounds according to the invention was determined in the animal model of transient occlusion of the middle cerebral artery (tMCA-O) and the subdural haematoma (SDH). […] Under general anaesthesia (inhalation anaesthesia with isoflurane), the hairs in the lower anterior neck region are shaved off, in the dorsal position, the head is fixed, the skin is disinfected and the neck area is opened in the middle along the trachea. The right lateral neck muscles are severed bluntly and, together with the skin, pulled to the side (retractors) so that the common carotid artery is clearly visible. The common carotid artery is exposed towards the head up to the point where it branches into the internal carotid artery and the external carotid artery. Using surgical suture material, the common carotid artery (near the thorax) and the external carotid artery are tied off. Using a microclamp; the internal carotid artery is closed temporarily. […] After 2 days of post-operative survival, the volume of the cerebral infarct is determined with the aid of a computer-supported image analysis system using preproduced series of histological brain sections. The size of the infarct is evaluated differentially by cortex, striatum, hippocampus and other brain areas.

[2] = Determination of the solubility (precipitation method, physiological saline, HPLC); type: physicochemical; conditions: saline or isotonic, kinetic from dmso stock, 25° C., 24 hours equilibration
Protocol: 1. Determination of the Solubility
To determine the solubility, a precipitation method was used:
10 mg of the test substance are completely dissolved in 50 μl of DMSO (stock solution). 20 μl of this solution are added to 2000 μl of physiological saline. This solution, in turn, is shaken at 25° C. in a Thermomixer Comfort (from Eppendorf) at 1400 rpm for 24 hours for equilibration.
The precipitated fractions of the test substance are centrifuged off using a Biofuge 15 from Heraeus at 14,000 rpm for 5 min. 1300 μl of the supernatant are once more centrifuged using a Microfuge from Beckmann at 45,000 rpm=125,000 g.
10 μl of this centrifigation supernatant are then diluted with 1000 μl of DMSO, and this solution is measured by HPLC (Hewlett Packard 1090, method, gradient from 100% PBS buffer pH=4 to 10% buffer/90% acetonitrile over a period of 15 min, column: RPI8; PBS buffer pH=4 is a physiological saline solution adjusted to pH=4 using phosphate buffer).
Using a calibration curve, the measured peak area of the HPLC measurement is converted into substance concentration. For the calibration curve, 20 μl of the stock solution are diluted successively with DMSO such that 5 concentrations of 2.5 mg/l to 2000 mg/l result. These solutions are likewise measured by HPLC (see method above), and the peak areas are plotted as a function of the concentrations.

[3] = target: T1, adenosine transport protein from calf cortex (Bos taurus, UniProt A0ACM8Q8F7); test: Binding to an adenosine transport protein from calf cortex (displacement of radio-labelled NBTI); conditions: membrane preparation of cerebral calf cortex, read-out: Ki, inhibition of NBTI-binding
T1 construct: a membrane preparation of cerebral calf cortex is used, which expresses the relevant adenosine transporter; from tissue; host or cells: cerebral calf cortex, membrane preparation
T1 sequence (A0ACM8Q8F7 1-456): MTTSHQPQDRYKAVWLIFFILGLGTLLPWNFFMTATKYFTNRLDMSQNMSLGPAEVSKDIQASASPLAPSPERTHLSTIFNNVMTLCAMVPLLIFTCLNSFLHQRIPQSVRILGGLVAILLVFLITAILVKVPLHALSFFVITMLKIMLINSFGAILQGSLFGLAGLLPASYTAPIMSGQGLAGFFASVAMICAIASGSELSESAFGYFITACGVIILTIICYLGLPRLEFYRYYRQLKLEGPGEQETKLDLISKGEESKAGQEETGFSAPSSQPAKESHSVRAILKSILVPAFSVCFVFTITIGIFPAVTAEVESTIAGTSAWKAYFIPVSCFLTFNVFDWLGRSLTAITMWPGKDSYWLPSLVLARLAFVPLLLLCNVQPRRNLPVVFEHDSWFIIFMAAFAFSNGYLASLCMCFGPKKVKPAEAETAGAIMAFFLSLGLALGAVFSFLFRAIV
Source text: 2. Binding of the Compounds According to the Invention to an Adenosine Transport Protein From Calf Cortex
The ability of substances to influence the adenosine uptake system is investigated firstly by determining the binding affinity of selected substances to an adenosine transport protein of the CNS and secondly by determining the inhibiting effect of the substances on functional adenosine uptake.
For the binding test, a membrane preparation of cerebral calf cortex is used, which expresses the relevant adenosine transporter. The binding affinity (Ki value) is determined by measuring the displacement of a specific radio-labelled ligand [nitrobenzylthioinosine (NBTI)] from the binding site in question by test substances. The binding site is the binding site on the transport protein which is relevant for the actual transport process. Thus, binding of test substances in this experiment results in a quantifiable release of bound radioactive NBTI which makes determination of the Ki value possible. (J. Neurochemistry 1982,39, 184-191).

subdural haematoma (SDH) = test: Subdural haematoma in rats (SDH), infarct volume; type: in vivo; conditions: rat SDH, 0.001 mg/(kg×h) i.v. infusion
Protocol: The neuroprotective activity of the compounds according to the invention was determined in the animal model of transient occlusion of the middle cerebral artery (tMCA-O) and the subdural haematoma (SDH). 5. Subdural Haematoma in Rats (SDH) This rodent model (rat) imitates pathophysiology and cerebral pathology of the blunt skull-brain trauma with subdural hemorrhage and development of a subdural haematoma in man. (Neurosurgery 190, 27,433-439). Under anaesthesia, the animals are unilaterally injected subdurally with their own blood. Under the haematoma, an infarct forms. The substance is administered according to different schedules and via different administration routes (i.v., i.p.). The size of the infarct is determined as described in the model of the transient focal ischaemia in rats (tMCA-O).

SMILES	reduction of the infarct volume in comparison to control animals [1] [%]	solubility at 24 h [2] [µg/mL]	Ki [3] [nM]	reduction of the infarct volume in comparison to control animals (subdural haematoma (SDH)) [%]
NC(=O)[C@@H](NC(=O)[C@@H]1CCCC[C@H]1c1ccc(Cn2c(CN3CCOCC3)nc3cccnc32)cc1)c1ccccc1 [Example 3]	81	176 (≈ 311 µM)	2	30
Cl.NC(=O)[C@@H](NC(=O)[C@@H]1CCCC[C@H]1c1ccc(Cn2c(CN3CCOCC3)nc3ncccc32)cc1)c1ccccc1 [Example 4, (S)-N-{{(1R,2R)-{4-{2-[2-(Morpholin-4-yl-methyl)-1H-pyrido[2,3-d]imidazol-1-yl]methyl}-phenyl}-cyclohex-1-yl}carbonyl}-phenylglycinamide hydrochloride]	–	–	–	45
CN1CCN(c2nc3ccccc3n2Cc2ccc([C@@H]3CCCC[C@H]3C(=O)N[C@H](C(N)=O)c3ccccc3)cc2)CC1 [Example 5, (S)-N-{{(1R,2R)-2-{4-{[2-(4-Methyl-piperazin-1-yl)benzimidazol-1-yl]methyl}-phenyl}-cyclohex-1-yl}carbonyl}-phenylglycinamide]	91	16 (≈ 28.3 µM)	2	–
